Experimental data: patent publication US10947242B2, “[1,2,4]triazolo[1,5and#8208;A]pyrimidine compounds as PDE2 inhibitors” (Janssen Pharmaceutica NV, priority 2016, dated 2021)
Where two headings read alike, the source gives them in different places.

Columns and labels:
[1] = biological target: T1, Human recombinant PDE2A (hPDE2A) (Homo sapiens, UniProt O00408); experiment: In vitro assay PDE2A (SPA, 3H-cGMP hydrolysis); assay type: biochemical; conditions: for Emax: read-out: hPDE2A Emax
T1 construct: His tag (inferred from metal chelate purification); made in house; host or cells: Sf9 insect cells (baculovirus)

[2] = biological target: T2, Human recombinant PDE3A (hPDE3A) (Homo sapiens, UniProt Q14432); experiment: In vitro assay PDE3A (SPA, 3H-cAMP hydrolysis); assay type: biochemical; conditions: for IC50: hPDE3B pIC50, read-out: pIC50 (converted); for Emax: read-out: hPDE3B Emax;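 as to all read-outs here: the method names PDE3A and the table heading PDE3B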
T2 construct: purchased Scottish Biomedical; host or cells: Sf9 insect cells
Outline: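 Human PDE3A, cloned from brain, as partially purified Sf9 lysate. Substrate 0.4 μM cAMP plus [3H]-cAMP (2.4 μCi/ml final) in 50 mM Tris pH 7.8, 8.3 mM MgCl2, 1.7 mM EGTA, 60 min at room temperature, 1% DMSO final. Hydrolysis read by SPA scintillation counting against no-enzyme blanks and DMSO controls.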

[3] = biological target: T3, Human recombinant PDE10A (hPDE10A) (Homo sapiens, UniProt Q9Y233); experiment: In vitro assay PDE10A, human clone (SPA, 3H-cAMP hydrolysis); assay type: biochemical
T3 construct: His tag (inferred from metal chelate purification); made in house; host or cells: Sf9 insect cells (baculovirus)
Outline: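 Human recombinant PDE10A was expressed in Sf9 cells via baculovirus and incubated with compound in 50 mM Tris pH 7.8, 8.3 mM MgCl2, 1.7 mM EGTA. Substrate was 60 nM cAMP plus 0.008 μCi 3H-cAMP for 60 min at room temperature, read by SPA scintillation counting. Controls used 1% DMSO, and blanks omitted enzyme.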

PDE2A = biological target: T4, PDE2A (Rattus norvegicus, UniProt Q01062); experiment: PDE2 occupancy by test compounds, ex-vivo autoradiography with [3H]B-17a; assay type: in vivo, Male Wistar rats; conditions: for receptor occupancy at 10 mg/kg: percentage receptor occupancy, ex-vivo autoradiography, striatum; for ED50: read-out: PDE Occupancy ED50
T4 construct: Twenty μm-thick striatal sections were cut; from tissue; host or cells: rat brain, striatal sections
T4 sequence (Q01062 1-928): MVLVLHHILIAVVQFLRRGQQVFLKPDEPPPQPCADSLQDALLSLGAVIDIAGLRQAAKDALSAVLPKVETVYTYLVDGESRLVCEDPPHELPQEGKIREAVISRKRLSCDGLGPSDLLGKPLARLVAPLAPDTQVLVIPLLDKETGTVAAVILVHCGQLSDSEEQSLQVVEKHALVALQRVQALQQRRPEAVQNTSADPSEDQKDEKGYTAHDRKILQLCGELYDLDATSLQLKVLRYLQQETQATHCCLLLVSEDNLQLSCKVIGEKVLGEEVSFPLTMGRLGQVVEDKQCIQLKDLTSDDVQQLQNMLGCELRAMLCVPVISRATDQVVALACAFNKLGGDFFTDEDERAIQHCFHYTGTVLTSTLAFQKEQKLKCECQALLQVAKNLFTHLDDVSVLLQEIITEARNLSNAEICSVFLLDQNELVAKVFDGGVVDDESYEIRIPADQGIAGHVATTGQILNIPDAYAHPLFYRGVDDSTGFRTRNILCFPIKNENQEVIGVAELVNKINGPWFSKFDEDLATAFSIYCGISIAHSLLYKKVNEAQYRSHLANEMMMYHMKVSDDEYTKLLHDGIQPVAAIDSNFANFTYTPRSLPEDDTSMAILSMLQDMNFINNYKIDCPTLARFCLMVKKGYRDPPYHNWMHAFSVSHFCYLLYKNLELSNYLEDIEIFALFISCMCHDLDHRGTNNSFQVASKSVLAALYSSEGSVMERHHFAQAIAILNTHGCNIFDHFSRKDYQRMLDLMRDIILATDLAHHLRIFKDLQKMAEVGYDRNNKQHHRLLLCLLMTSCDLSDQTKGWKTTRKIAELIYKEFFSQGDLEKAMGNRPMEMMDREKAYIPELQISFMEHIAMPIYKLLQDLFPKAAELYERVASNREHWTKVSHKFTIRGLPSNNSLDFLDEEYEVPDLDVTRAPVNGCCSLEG

[4] = human recombinant PDE2A, 10 μM cGMP substrate, read-out: hPDE2A pIC50 (converted)
[5] = read-out: hPDE2A pIC50 (converted)
[6] = human clone (h), default, read-out: hPDE10A2 Emax
[7] = human clone (h), default, read-out: hPDE10A2 pIC50 (converted)
[8] = human clone by default (no (r) mark), read-out: hPDE10A2 or rPDE10A2 Emax
[9] = human clone by default (no (r) mark), read-out: hPDE10A2 or rPDE10A2 pIC50 (converted)
[10] = route PO (oral), drug dose producing 50% receptor occupancy

T2 sequence (Q14432 whole entry): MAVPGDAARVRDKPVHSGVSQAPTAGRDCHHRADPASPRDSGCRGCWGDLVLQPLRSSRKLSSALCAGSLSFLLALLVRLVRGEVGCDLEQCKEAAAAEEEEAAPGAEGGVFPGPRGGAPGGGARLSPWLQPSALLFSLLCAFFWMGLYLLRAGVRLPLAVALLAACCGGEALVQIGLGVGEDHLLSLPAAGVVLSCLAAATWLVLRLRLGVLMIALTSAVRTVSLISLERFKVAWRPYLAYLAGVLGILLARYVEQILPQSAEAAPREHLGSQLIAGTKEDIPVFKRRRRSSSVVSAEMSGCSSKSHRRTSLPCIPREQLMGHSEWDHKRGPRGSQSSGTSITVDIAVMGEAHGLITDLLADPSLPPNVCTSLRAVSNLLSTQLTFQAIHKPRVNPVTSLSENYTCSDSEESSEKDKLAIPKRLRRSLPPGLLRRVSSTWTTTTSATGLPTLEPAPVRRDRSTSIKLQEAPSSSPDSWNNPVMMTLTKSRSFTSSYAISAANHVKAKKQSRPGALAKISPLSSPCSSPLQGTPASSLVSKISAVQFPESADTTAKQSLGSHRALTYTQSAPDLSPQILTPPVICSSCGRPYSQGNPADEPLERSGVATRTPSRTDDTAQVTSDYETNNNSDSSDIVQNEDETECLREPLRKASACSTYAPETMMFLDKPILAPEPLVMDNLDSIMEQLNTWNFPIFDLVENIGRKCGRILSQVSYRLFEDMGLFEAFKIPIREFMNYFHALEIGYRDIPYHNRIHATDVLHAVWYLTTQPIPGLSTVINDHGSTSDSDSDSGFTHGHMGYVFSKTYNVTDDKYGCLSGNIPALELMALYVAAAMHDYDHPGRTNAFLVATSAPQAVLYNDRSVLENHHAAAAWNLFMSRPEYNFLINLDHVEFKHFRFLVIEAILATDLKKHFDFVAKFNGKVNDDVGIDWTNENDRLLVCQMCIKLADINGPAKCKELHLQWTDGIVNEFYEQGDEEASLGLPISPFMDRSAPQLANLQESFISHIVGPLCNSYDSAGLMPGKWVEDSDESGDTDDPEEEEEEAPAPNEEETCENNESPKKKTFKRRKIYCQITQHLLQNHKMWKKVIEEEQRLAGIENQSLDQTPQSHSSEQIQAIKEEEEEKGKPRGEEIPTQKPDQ
T3 sequence (Q9Y233 267-1055): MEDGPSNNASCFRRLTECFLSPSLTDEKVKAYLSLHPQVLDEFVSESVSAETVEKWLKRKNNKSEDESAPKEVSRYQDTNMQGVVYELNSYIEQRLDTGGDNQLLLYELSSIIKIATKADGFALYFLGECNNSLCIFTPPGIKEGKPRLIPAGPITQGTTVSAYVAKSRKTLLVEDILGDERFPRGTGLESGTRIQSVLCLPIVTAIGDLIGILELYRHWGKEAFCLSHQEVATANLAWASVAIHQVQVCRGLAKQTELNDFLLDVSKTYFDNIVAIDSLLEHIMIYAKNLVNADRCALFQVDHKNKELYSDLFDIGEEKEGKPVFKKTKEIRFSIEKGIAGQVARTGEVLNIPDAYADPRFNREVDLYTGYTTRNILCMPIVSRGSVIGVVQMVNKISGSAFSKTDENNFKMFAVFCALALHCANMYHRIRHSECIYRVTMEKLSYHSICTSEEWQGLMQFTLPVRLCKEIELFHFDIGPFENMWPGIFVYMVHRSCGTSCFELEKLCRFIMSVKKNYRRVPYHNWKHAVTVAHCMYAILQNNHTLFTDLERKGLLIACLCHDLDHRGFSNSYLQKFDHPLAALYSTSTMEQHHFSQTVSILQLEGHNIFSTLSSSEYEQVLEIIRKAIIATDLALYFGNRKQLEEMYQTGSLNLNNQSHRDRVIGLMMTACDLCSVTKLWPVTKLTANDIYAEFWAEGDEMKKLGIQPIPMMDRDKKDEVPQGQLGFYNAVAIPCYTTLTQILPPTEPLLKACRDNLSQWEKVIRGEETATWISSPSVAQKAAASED
T1 sequence (O00408 whole entry): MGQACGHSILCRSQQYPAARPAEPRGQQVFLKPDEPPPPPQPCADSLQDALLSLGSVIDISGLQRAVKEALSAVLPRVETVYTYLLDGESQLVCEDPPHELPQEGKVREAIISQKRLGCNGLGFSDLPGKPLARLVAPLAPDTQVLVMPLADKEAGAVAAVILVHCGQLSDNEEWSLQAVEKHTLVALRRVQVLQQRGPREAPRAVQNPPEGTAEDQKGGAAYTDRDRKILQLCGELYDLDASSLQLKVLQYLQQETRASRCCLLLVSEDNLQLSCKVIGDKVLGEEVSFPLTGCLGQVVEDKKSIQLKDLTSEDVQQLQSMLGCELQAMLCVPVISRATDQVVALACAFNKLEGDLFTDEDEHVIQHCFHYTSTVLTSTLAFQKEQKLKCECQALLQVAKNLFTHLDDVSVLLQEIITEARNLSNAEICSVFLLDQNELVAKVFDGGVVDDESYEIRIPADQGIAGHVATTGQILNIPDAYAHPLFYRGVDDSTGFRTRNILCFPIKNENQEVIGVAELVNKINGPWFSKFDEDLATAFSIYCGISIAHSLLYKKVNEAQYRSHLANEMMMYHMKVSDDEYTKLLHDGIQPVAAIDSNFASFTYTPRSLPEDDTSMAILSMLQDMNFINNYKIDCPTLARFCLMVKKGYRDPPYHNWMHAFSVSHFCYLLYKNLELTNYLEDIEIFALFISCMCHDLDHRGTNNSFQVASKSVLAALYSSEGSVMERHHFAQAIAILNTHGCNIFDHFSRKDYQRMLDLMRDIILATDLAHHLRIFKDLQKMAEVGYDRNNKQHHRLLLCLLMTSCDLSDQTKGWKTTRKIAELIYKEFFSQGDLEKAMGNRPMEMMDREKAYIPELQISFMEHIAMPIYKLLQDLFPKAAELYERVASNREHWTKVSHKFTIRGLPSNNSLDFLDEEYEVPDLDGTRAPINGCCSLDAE

IC50 [1, 4]	Emax ([1]; human recombinant PDE2A)	Emax [1]	IC50 [1, 5]	IC50 [2]	Emax ([2]; read-out: Emax)	Emax [3, 6]	IC50 [3, 7]	receptor occupancy at 10 mg/kg (PDE2A; po, route PO (oral))	receptor occupancy at 10 mg/kg (PDE2A; sc, route SC (subcutaneous))	Emax [3, 8]	IC50 [3, 9]	ED50 (PDE2A; [10])	SMILES	IC50 ([1]; hPDE2A pIC50)	IC50 ([1]; hPDE2A pIC50, human recombinant PDE2A, 10 μM cGMP substrate)	hPDE2A Emax [1]	Emax [2]	ED50 (PDE2A; po)	receptor occupancy at 10 mg/kg (PDE2A; route SC (subcutaneous))
3.72 nM	98%	98%	3.72 nM	1780 nM	82%	98%	178 nM	3%					C[C@@H]1CCN(C(=O)c2ccc(Cl)c(C(F)(F)F)c2)C[C@H]1c1cc(C(F)F)nc2ncnn12 [Compound 169]						
4.57 nM	100%	100%	4.57 nM	2140 nM	84%	84%	1290 nM	1%					C[C@@H]1CCN(C(=O)c2cc3c(nc2Cl)CCCC3)C[C@H]1c1cc(C(F)F)nc2ncnn12 [Compound 170]						
28.2 nM	100%	100%	28.2 nM	> 10000 nM	17%	75%	2750 nM	-2%					Cc1nocc1C(=O)N1CC[C@@H](C)[C@H](c2cc(C(F)F)nc3ncnn23)C1 [Compound 184]						
10.7 nM	100%	100%	10.7 nM	6030 nM	69%	95%	339 nM		8%				C[C@@H]1CCN(C(=O)c2ccc(F)c(O)c2)C[C@H]1c1cc(C(F)F)nc2ncnn12 [Compound 186]						
17.8 nM	99%	99%	17.8 nM	3470 nM	74%	95%	427 nM		0%				C[C@@H]1CCN(C(=O)c2noc3ccccc23)C[C@H]1c1cc(C(F)F)nc2ncnn12 [Compound 187]						
8.51 nM	99%	99%	8.51 nM	1550 nM	87%	98%	209 nM		2%				Cc1nc2cc(C(=O)N3CC[C@@H](C)[C@H](c4cc(C(F)F)nc5ncnn45)C3)ccc2o1 [Compound 188]						
5.89 nM	100%	100%	5.89 nM	3470 nM	76%	98%	138 nM	-11%	-3%				C[C@@H]1CCN(C(=O)c2ccc(F)c(OC(F)F)c2)C[C@H]1c1cc(C(F)F)nc2ncnn12 [Compound 193]						
4.47 nM	98%	98%	4.47 nM	5620 nM	70%	93%	372 nM	-7%	-13%				COc1cc(C(=O)N2CC[C@@H](C)[C@H](c3cc(C(F)F)nc4ncnn34)C2)ccc1F [Compound 195]						
23.4 nM	99%	99%	23.4 nM	4900 nM	68%	92%	562 nM	0%					COc1ccc(C(=O)N2CC[C@@H](C)[C@H](c3cc(C(F)F)nc4ncnn34)C2)cn1 [Compound 196]						
10.2 nM	98%	98%	10.2 nM	> 10000 nM	42%	96%	209 nM	8%					C[C@@H]1CCN(C(=O)c2cccc(C#N)c2)C[C@H]1c1cc(C(F)F)nc2ncnn12 [Compound 197]						
195 nM	98%	98%	195 nM	> 10000 nM	19%	71%	3470 nM	19%		71%	3470 nM		Cc1nc(C(=O)N2CC[C@H](C)[C@H](c3cc(C(F)F)nc4ncnn34)C2)ccc1F [Compound 223]						
2.19 nM	101%	101%	2.19 nM	380 nM	95%	98%	45.7 nM		18%	98%	45.7 nM		C[C@@H]1CCN(C(=O)c2ccc3scnc3c2)C[C@H]1c1cc(C(F)F)nc2ncnn12 [Compound 227]						
1.35 nM	97%	97%	1.35 nM	9120 nM	57%	100%	19.5 nM		-13%	100%	19.5 nM		C[C@@H]1CCN(C(=O)c2ccc(O)c(C#N)c2)C[C@H]1c1cc(C(F)F)nc2ncnn12 [Compound 231]						
		102%	0.398 nM	61.7 nM	100%	99%	11.2 nM	59%		99%	11.2 nM	11 mg/kg	COc1cccc2c1OCC(C(=O)N1CC[C@@H](C)[C@H](c3cc(C(F)F)nc4ncnn34)C1)=C2 [Compound 267]						
		101%	0.708 nM	3720 nM	78%	93%	692 nM	22%		93%	692 nM	24.2 mg/kg	C[C@@H]1CCN(C(=O)c2cc(C3CC3)ncc2F)C[C@H]1c1cc(C(F)F)nc2ncnn12 [Compound 269]						
		102%	2.19 nM	8910 nM	54%	93%	794 nM	3%		93%	794 nM		COc1ncc(C)cc1C(=O)N1CC[C@@H](C)[C@H](c2cc(C(F)F)nc3ncnn23)C1 [Compound 272]						

SMILES	IC50 [1, 4]	Emax ([1]; human recombinant PDE2A)	Emax [1]	IC50 [1, 5]	IC50 [2]	Emax ([2]; read-out: Emax)	Emax [3, 6]	IC50 [3, 7]	receptor occupancy at 10 mg/kg (PDE2A; po, route PO (oral))	receptor occupancy at 10 mg/kg (PDE2A; sc, route SC (subcutaneous))	Emax [3, 8]	IC50 [3, 9]	ED50 (PDE2A; [10])	IC50 ([1]; hPDE2A pIC50)	IC50 ([1]; hPDE2A pIC50, human recombinant PDE2A, 10 μM cGMP substrate)	hPDE2A Emax [1]	Emax [2]	ED50 (PDE2A; po)	receptor occupancy at 10 mg/kg (PDE2A; route SC (subcutaneous))
C[C@@H]1CCN(C(=O)c2cc(F)cc(C#N)c2)C[C@H]1c1cc(C(F)F)nc2ncnn12 [Compound 190]			100%		> 10000 nM	39%	96%	158 nM	1%					10.2 nM	10.2 nM				
Cc1cc(C(=O)N2CC[C@H](C)[C@@H](c3cc(C(F)F)nc4ncnn34)C2)cc(C)n1 [Compound 220]					> 10000 nM				-8%		41%	> 10000 nM		302 nM		54	8%	> 80 mg/kg	
Cc1c(C(=O)N2[C@H]3CC[C@H](c4cc(C(F)F)nc5ncnn45)[C@@H]2CC3)oc2ccccc12 [Compound 273]			100%	2.34 nM	813 nM	96%	96%	977 nM			96%	977 nM							65%
